Earlier results as cited in patent US20070212307A1, “Pharmaceutical Compositions Comprising an Opioid Receptor Antagonist and Methods of Using Same” (priority 2006, published 2007).

Conditions: 50 mg oral dose

O=C1CC[C@@]2(O)[C@H]3Cc4ccc(O)c5c4[C@@]2(CCN3CC2CC2)[C@H]1O5 [naltrexone]
oral bioavailability: 10%-25%
